Experimental data: patent US20190175557A1, “COMPOUNDS USEFUL FOR DECREASING INTERFERON LEVEL” (priority 2016, published 2019)

Tests used:
[1] = test system: human Flu-activated primary PBMC; experiment: cells; assay type: cell-based; settings: read-out: EC50
[2] = test system: Flu-stimulated pDC from wild type and H4R KO mice; assay type: cell-based, mouse; settings: CB 10 μM, overnight Influenza A
[3] = test system: 129S8 mice infected with Influenza A virus strain X31 (H3N2); settings: mouse, in vivo
[4] = Solubility of test compounds
HIV-stimulated pDC = experiment: TRAIL relocalization to the membrane of HIV-stimulated pDC (3D microscopy); assay type: cell-based, human
Method: (§1) Cells were then incubated with anti-CXCR4 antibody (Biolegend, San Diego, Calif.) in saturation buffer PBS-BSA 0.5% for membrane staining or in permeabilizing buffer containing 1% saponin with monoclonal antibody anti-TRAIL (Biolegend, San Diego, Calif., USA). […] Nucleus was stained using DAPI (Molecular Probes, Paisley, UK). Slides were mounted with Fluoromount-G (eBioscience, CA, USA) and scanned with a Nikon Eclipse 90i Upright microscope (Nikon Instruments Europe, Badhoevedorp, The Netherlands) using a 100× Plan Apo VC piezo objective (NA 1.4) and Chroma bloc filters (ET-DAPI, ET-GFP) and were subsequently deconvoluted with a Meinel algorithm and 8 iterations and analyzed using Metamorph® (MDS Analytical Technologies, Winnersh, UK). TRAIL/DAPI/Overlay/Confocal plane: Representative 2D focal plan. Overlay with bright: Bright. Reconvolution overlays: 2D projections of the maximum intensity pixels along the Z-axis.
7 pictures were taken from each slide for each Z section framing the nucleus. Quantification of the colocalization in the cytoplasm of purified pDC using Mander's Coefficient was obtained after analyze by JACoP pluging in ImageJ.

H4R = H4R (Homo sapiens, UniProt Q9H3N8); assay type: cell-based
CXCR4 = CXCR4 (Homo sapiens, UniProt P61073); experiment: CXCR4 internalization and co-localization in pDC (microscopy); assay type: cell-based; settings: cells incubated with CB, compared to untreated cells
Method: as §1, with “Reconvolution overlays: 2D projections of the maximum intensity pixels along the Z-axis.” left out
In other cases, cells were cultured overnight in media alone then were washed in ice-cold PBS-BSA 0.2% and stained with CXCR4 antibody (R&D Systems) for 1 hour at 4° C. […] Data are expressed as the mean percentage ±SEM mean channel fluorescence intensity (MFI) values for residual surface expression and intracellular staining. […]
7 pictures were taken from each slide for each Z section framing the nucleus. Quantification of the colocalization in the cytoplasm of purified pDC using Mander's Coefficient was obtained after analyze by JACoP pluging in ImageJ. […]

Flu-stimulated pDC = experiment: IFN-α production and membrane TRAIL by pDC cultured with Flu or Dengue; assay type: cell-based, human
Method: PBMC were seeded at 1.10^6/1 mL or purified pDC were seeded at 5.10^4/100 μl and then stimulated with the following viruses: inactivated AT-2 HIV-1MN (CXCR4 co-receptor specific) or AT-2 HIV-1ADA (CCR5 co-receptor specific) at 60 ng/mL p24^CA equivalent (provided by J. D. Lifson (SAIC-NCI, Frederick, Md.)), Infectious human Influenza A/PR/8/34 virus (Flu), titer 1:8192 at dilution 1:1000 or DENV-2 16681 at MOI 10. Infectious HIV-1MN [tissue culture 50% infective dose (TCID50)=[…]] and HIV-1ADA (TCID50=1,000) were used at the same concentration. Purified pDC were pre-treated with amino compounds for 1 hour, following overnight stimulation with virus. Supernatants were collected for cytokine detection. Microvesicles isolated from uninfected cell cultures matched to the culture to produce the virus were used as negative control (Mock).
The compounds were added in pDC culture at 10 μM (or other if specified) 1 hour before stimulation or not of the different viruses. For histamine, X-vivo culture media (Lonza) was used in order to avoid histaminases.
Cells were pre-incubated 1 hour with AMD (20 μM) (Sigma-Aldrich, MO, USA) prior to CB or histamine incubation. pDC were cultured in the presence of […] of the oligodinucleotide A151 (TTAGGG) ODN (Integrated DNA Technologies, Coralville, Iowa). […]

[5] = test system: HIV or LPS stimulated monocytes; experiment: IFN-γ mRNA in monocytes stimulated with HIV or LPS (RT-qPCR); assay type: cell-based; settings: RT-qPCR normalized to RPL13A
Method: Data shown are representative of two independent experiments.
Monocytes were pre-incubated with clobenpropit (CB), IT1t or chloroquine before being activated by HIV and LPS. IFN-γ levels were measured by RT-qPCR and normalized to RPL13A mRNA expression.

CXCR4, sequence (P61073 whole entry): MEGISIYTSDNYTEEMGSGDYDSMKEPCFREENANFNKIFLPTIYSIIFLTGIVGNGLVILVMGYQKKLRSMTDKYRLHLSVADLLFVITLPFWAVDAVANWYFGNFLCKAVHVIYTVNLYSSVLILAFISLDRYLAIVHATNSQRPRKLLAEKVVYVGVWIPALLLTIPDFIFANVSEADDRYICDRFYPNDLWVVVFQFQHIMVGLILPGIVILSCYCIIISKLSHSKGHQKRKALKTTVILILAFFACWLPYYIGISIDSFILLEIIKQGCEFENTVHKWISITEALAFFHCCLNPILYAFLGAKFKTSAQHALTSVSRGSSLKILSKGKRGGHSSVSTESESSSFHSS
H4R, sequence (Q9H3N8 whole entry): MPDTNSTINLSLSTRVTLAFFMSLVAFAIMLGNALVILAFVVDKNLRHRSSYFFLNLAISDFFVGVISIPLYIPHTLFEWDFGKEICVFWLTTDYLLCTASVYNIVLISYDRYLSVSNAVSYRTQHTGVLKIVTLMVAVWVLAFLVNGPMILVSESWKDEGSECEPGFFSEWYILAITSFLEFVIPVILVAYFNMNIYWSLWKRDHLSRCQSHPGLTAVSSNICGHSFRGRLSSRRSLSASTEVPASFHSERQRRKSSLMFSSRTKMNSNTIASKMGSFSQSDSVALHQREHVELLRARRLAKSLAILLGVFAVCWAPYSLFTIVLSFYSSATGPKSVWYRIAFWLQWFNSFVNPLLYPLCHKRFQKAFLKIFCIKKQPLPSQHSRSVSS

NC(=NCc1ccc(Cl)cc1)SCCCc1cnc[nH]1 [Clobenpropit, clobenpropit]
CC50 (in vitro): 417 ± 6 µM
EC50 [1]: 24 ± 2 µM
IFN-α production by Flu-stimulated pDC from H4R KO mice [2]: inhibited
IFN-α production by Flu-stimulated pDC from wild type mice [2]: inhibited
IFN-α, IFN-β and IFN-λ2/3 protein production in bronchioalveolar lavage (BAL) fluid [3]: strong reduction
solubility ([4]; PBS, aqueous buffer): > 50 mg/mL
solubility ([4]; water): > 50 mg/mL
TRAIL localization to the cell membrane in HIV-stimulated pDC (HIV-stimulated pDC): significantly inhibited
effect of H4R knock down on inhibitory activity on IFN-α, IFN-β and TRAIL productions by HIV-stimulated pDC (H4R): did not block
intracellular / extracellular CXCR4 in pDC (CXCR4): most of CXCR4 was detected intracellularly
IFN-α production and membrane TRAIL expression by pDC cultured with Flu and Dengue (Flu-stimulated pDC): strongly inhibited
IFN-γ expression by HIV or LPS stimulated monocytes [5]: inhibit
